Experimental data published in patent US8063065B2, “Azaindazole compounds as CCR1 receptor antagonists” (Boehringer Ingelheim International GmbH, priority 2008, dated 2011).

target: T1, CCR1 (Homo sapiens, UniProt P32246); assay: Method B: calcium flux in CCR1 transfected cells (Calcium 4 dye, […] FDSS6000), block of the CCR1/MIP-1α interaction; format: cell-based; conditions: Method B: Calcium 4 dye, MIP-1alpha at EC80
T1 sequence (P32246 1-355): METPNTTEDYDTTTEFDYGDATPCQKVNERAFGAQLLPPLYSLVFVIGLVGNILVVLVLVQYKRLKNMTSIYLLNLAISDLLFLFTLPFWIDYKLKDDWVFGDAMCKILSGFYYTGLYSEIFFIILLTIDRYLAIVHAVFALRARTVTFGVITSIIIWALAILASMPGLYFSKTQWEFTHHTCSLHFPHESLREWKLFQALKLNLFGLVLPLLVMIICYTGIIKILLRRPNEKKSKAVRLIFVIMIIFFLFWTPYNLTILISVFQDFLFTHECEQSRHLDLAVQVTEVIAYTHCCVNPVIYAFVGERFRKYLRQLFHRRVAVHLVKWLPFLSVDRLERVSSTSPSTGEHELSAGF
Procedure, shortened: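 Calcium flux on an FDSS6000 was triggered by MIP-1α at its EC80 in stably CCR1/G-alpha-16-expressing non-adherent cells. Before this, Calcium 4-loaded cells were preincubated with compound in HBSS, 20 mM HEPES pH 7.4, 1% DMSO: 30 min at 37 C plus 30 min at room temperature. Ten 4-fold doses began at 3,000 nM, with ±MIP-1α DMSO wells as controls.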

`C[C@@H](O)CNS(=O)(=O)c1ccc(CNC(=O)c2cncc3c2cnn3-c2ccc(F)cc2)cc1` [1-(4-Fluorophenyl)-1H-pyrazolo[3,4-c]pyridine-4-carboxylic acid 4-((R)-2-hydroxy-propylsulfamoyl)-benzylamide] and `C[C@H](O)CNS(=O)(=O)c1ccc(CNC(=O)c2cncc3c2cnn3-c2ccc(F)cc2)cc1` [1-(4-Fluorophenyl)-1H-pyrazolo[3,4-c]pyridine-4-carboxylic acid 4-((S)-2-hydroxy-propylsulfamoyl)-benzylamide] are within 1.5-fold of each other in IC50: 1 nM for the first, 0.8 nM for the second.

First: CC[C@H](NC(=O)c1cncc2c1cnn2-c1ccc(F)cc1)c1cccnc1 [1-(4-Fluorophenyl)-1H-pyrazolo[3,4-c]pyridine-4-carboxylic acid ((S)-1-pyridin-3-yl-propyl)-amide]
Second: CC[C@H](NC(=O)c1cncc2c1cnn2-c1ccc(F)cc1)c1cncc(S(C)(=O)=O)c1 [1-(4-Fluorophenyl)-1H-pyrazolo[3,4-c]pyridine-4-carboxylic acid [(S)-1-(5-methanesulfonyl-pyridin-3-yl)-propyl]-amide]
The IC50 of the first is 40-fold higher: 8 nM for the first, 0.2 nM for the second. The second is the more potent here.

`C=CC[C@H](NC(=O)c1cncc2c1cnn2-c1ccc(F)cc1)c1ccnc(S(=O)(=O)CC)c1` [1-(4-Fluorophenyl)-1H-pyrazolo[3,4-c]pyridine-4-carboxylic acid [(S)-1-(2-ethanesulfonyl-pyridin-4-yl)-but-3-enyl]-amide] and `CC[C@H](NC(=O)c1cncc2c1cnn2-c1ccc(F)cc1)c1cncc(S(=O)(=O)CC)c1` [1-(4-Fluorophenyl)-1H-pyrazolo[3,4-c]pyridine-4-carboxylic acid [(S)-1-(5-ethanesulfonyl-pyridin-3-yl)-propyl]-amide] are within 1.5-fold of each other in IC50: 0.4 nM for the first, 0.3 nM for the second.

target: T1, CCR1; assay: Method A: calcium flux in CCR1 transfected cells (Fluo-4 NW, FLIPR TETRA), block of the CCR1/MIP-1α interaction; format: cell-based; conditions: Method A: Fluo-4 NW, MIP-1 alpha at EC80
Procedure, shortened: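 Non-adherent cells stably expressing recombinant CCR1 and G-alpha-16, Fluo-4 NW-loaded 1 h at room temperature, preincubated 1 h with compound (top 3,000 nM, 4-fold, 10 doses; 1% DMSO) in HBSS/20 mM HEPES pH 7.4. MIP-1 alpha added at EC80; intracellular calcium flux recorded on FLIPR TETRA.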

First: C[C@@H](O)CNS(=O)(=O)c1ccc(CNC(=O)c2cncc3c2cnn3-c2ccc(F)cc2)cc1 [1-(4-Fluorophenyl)-1H-pyrazolo[3,4-c]pyridine-4-carboxylic acid 4-((R)-2-hydroxy-propylsulfamoyl)-benzylamide]
Second: C[C@H](O)CNS(=O)(=O)c1ccc(CNC(=O)c2cncc3c2cnn3-c2ccc(F)cc2)cc1 [1-(4-Fluorophenyl)-1H-pyrazolo[3,4-c]pyridine-4-carboxylic acid 4-((S)-2-hydroxy-propylsulfamoyl)-benzylamide]
The IC50 of the first is 2-fold higher: 2 nM for the first, 1 nM for the second.

Going from `CC[C@H](NC(=O)c1cncc2c1cnn2-c1ccc(F)cc1)c1cccnc1` [1-(4-Fluorophenyl)-1H-pyrazolo[3,4-c]pyridine-4-carboxylic acid ((S)-1-pyridin-3-yl-propyl)-amide] to `CC[C@H](NC(=O)c1cncc2c1cnn2-c1ccc(F)cc1)c1cncc(Br)c1` [1-(4-Fluorophenyl)-1H-pyrazolo[3,4-c]pyridine-4-carboxylic acid [(S)-1-(5-bromopyridin-3-yl)-propyl]-amide], the IC50 falls from 15 nM to 0.2 nM (75-fold). The second is the more potent here.

Compared with `CN(c1ccc(CNC(=O)c2cncc3c2cnn3-c2ccc(F)cc2)cn1)S(C)(=O)=O` [1-(4-Fluorophenyl)-1H-pyrazolo[3,4-c]pyridine-4-carboxylic acid [6-(methanesulfonyl-methyl-amino)-pyridin-3-ylmethyl]-amide], `CN(C)CCN(c1ccc(CNC(=O)c2cncc3c2cnn3-c2ccc(F)cc2)cn1)S(C)(=O)=O` [1-(4-Fluorophenyl)-1H-pyrazolo[3,4-c]pyridine-4-carboxylic acid {6-[(2-dimethylamino-ethyl)-methanesulfonyl-amino]-pyridin-3-ylmethyl}-amide] is 4.4-fold higher in IC50: 5 nM for the first, 22 nM for the second.

`O=C(NCc1ccc(S(=O)(=O)N2CCOCC2)nc1)c1cncc2c1cnn2-c1ccc(F)cc1` [1-(4-Fluorophenyl)-1H-pyrazolo[3,4-c]pyridine-4-carboxylic acid [6-(morpholine-4-sulfonyl)-pyridin-3-ylmethyl]-amide] and `O=C(NCc1ccc(S(=O)(=O)NC2CCOCC2)nc1)c1cncc2c1cnn2-c1ccc(F)cc1` [1-(4-Fluorophenyl)-1H-pyrazolo[3,4-c]pyridine-4-carboxylic acid [6-(tetrahydropyran-4-ylsulfamoyl)-pyridin-3-ylmethyl]-amide] are within 1.5-fold of each other in IC50: 18 nM for the first, 17 nM for the second.

First: C=CC[C@@H](NC(=O)c1cncc2c1cnn2-c1ccc(F)cc1)c1ccnc(Br)c1 [1-(4-Fluorophenyl)-1H-pyrazolo[3,4-c]pyridine-4-carboxylic acid [(R)-1-(2-bromopyridin-4-yl)-but-3-enyl]-amide]
Second: C=CC[C@H](NC(=O)c1cncc2c1cnn2-c1ccc(F)cc1)c1ccnc(Br)c1 [1-(4-Fluorophenyl)-1H-pyrazolo[3,4-c]pyridine-4-carboxylic acid [(S)-1-(2-bromopyridin-4-yl)-but-3-enyl]-amide]
The IC50 of the first is 57-fold higher: 17 nM for the first, 0.3 nM for the second. The second is the more potent here.

First: C=CC[C@@H](NC(=O)c1cncc2c1cnn2-c1ccc(F)cc1)c1ccnc(S(C)(=O)=O)c1 [1-(4-Fluorophenyl)-1H-pyrazolo[3,4-c]pyridine-4-carboxylic acid [(R)-1-(2-methanesulfonyl-pyridin-4-yl)-but-3-enyl]-amide]
Second: C=CC[C@H](NC(=O)c1cncc2c1cnn2-c1ccc(F)cc1)c1ccnc(S(=O)(=O)CC)c1 [1-(4-Fluorophenyl)-1H-pyrazolo[3,4-c]pyridine-4-carboxylic acid [(S)-1-(2-ethanesulfonyl-pyridin-4-yl)-but-3-enyl]-amide]
The IC50 of the first is 1.7-fold higher: 1 nM for the first, 0.6 nM for the second. The second is the more potent here.

Compared with `CCC[C@H](NC(=O)c1cncc2c1cnn2-c1ccc(F)cc1)c1cncc(Br)c1` [1-(4-Fluorophenyl)-1H-pyrazolo[3,4-c]pyridine-4-carboxylic acid [(S)-1-(5-bromopyridin-3-yl)-butyl]-amide], `C[C@H](NC(=O)c1cncc2c1cnn2-c1ccc(F)cc1)c1cncc(Br)c1` [1-(4-Fluorophenyl)-1H-pyrazolo[3,4-c]pyridine-4-carboxylic acid [(S)-1-(5-bromopyridin-3-yl)-ethyl]-amide] is 5-fold higher in IC50: 0.2 nM for the first, 1 nM for the second. The first is the more potent here.

`CC[C@H](NC(=O)c1cncc2c1cnn2-c1ccc(F)cc1)c1cncc(S(=O)(=O)CC)c1` [1-(4-Fluorophenyl)-1H-pyrazolo[3,4-c]pyridine-4-carboxylic acid [(S)-1-(5-ethanesulfonyl-pyridin-3-yl)-propyl]-amide] and `CC[C@H](NC(=O)c1cncc2c1cnn2-c1ccc(F)cc1)c1cncc(S(C)(=O)=O)c1` [1-(4-Fluorophenyl)-1H-pyrazolo[3,4-c]pyridine-4-carboxylic acid [(S)-1-(5-methanesulfonyl-pyridin-3-yl)-propyl]-amide] are within 1.5-fold of each other in IC50: 0.4 nM for the first, 0.5 nM for the second.

`CCC[C@H](NC(=O)c1cncc2c1cnn2-c1ccc(F)cc1)c1cncc(S(C)(=O)=O)c1` [1-(4-Fluorophenyl)-1H-pyrazolo[3,4-c]pyridine-4-carboxylic acid [(S)-1-(5-methanesulfonyl-pyridin-3-yl)-butyl]-amide] and `CCC[C@H](NC(=O)c1cncc2c1cnn2-c1ccc(F)cc1)c1cncc(S(N)(=O)=O)c1` [1-(4-Fluorophenyl)-1H-pyrazolo[3,4-c]pyridine-4-carboxylic acid [(S)-1-(5-sulfamoyl-pyridin-3-yl)-butyl]-amide] are the same in IC50: 0.3 nM for the first, 0.3 nM for the second.

`C[C@H](NC(=O)c1cncc2c1cnn2-c1ccc(F)cc1)c1cncc(S(C)(=O)=O)c1` [1-(4-Fluorophenyl)-1H-pyrazolo[3,4-c]pyridine-4-carboxylic acid [(S)-1-(5-methanesulfonyl-pyridin-3-yl)-ethyl]-amide] and `CCC[C@H](NC(=O)c1cncc2c1cnn2-c1ccc(F)cc1)c1cncc(S(=O)(=O)O)c1` [5-((S)-1-{[1-(4-Fluorophenyl)-1H-pyrazolo[3,4-c]pyridine-4-carbonyl]-amino}-butyl)-pyridine-3-sulfonic acid] are within 1.5-fold of each other in IC50: 3 nM for the first, 4 nM for the second.

Compared with `CCC[C@H](NC(=O)c1cncc2c1cnn2-c1ccc(F)cc1)c1cncc(S(=O)(=O)NC)c1` [1-(4-Fluorophenyl)-1H-pyrazolo[3,4-c]pyridine-4-carboxylic acid [(S)-1-(5-methylsulfamoyl-pyridin-3-yl)-butyl]-amide], `CCCC(NC(=O)c1cncc2c1cnn2-c1ccc(F)cc1)c1cncc(S(=O)(=O)CCC(=O)OC)c1` (stereo not drawn) [3-[5-(1-{[1-(4-Fluorophenyl)-1H-pyrazolo[3,4-c]pyridine-4-carbonyl]-amino}-butyl)-pyridine-3-sulfonyl]-propionic acid methyl ester] is 15-fold higher in IC50: 0.2 nM for the first, 3 nM for the second. The first is the more potent here.

`C[C@H](NC(=O)c1cncc2c1cnn2-c1ccc(F)cc1)c1cccc(Br)n1` [1-(4-Fluorophenyl)-1H-pyrazolo[3,4-c]pyridine-4-carboxylic acid [(S)-1-(6-bromopyridin-2-yl)-ethyl]-amide] and `C[C@H](NC(=O)c1cncc2c1cnn2-c1ccc(F)cc1)c1cccc(S(C)(=O)=O)n1` [1-(4-Fluorophenyl)-1H-pyrazolo[3,4-c]pyridine-4-carboxylic acid [(S)-1-(6-methanesulfonyl-pyridin-2-yl)-ethyl]-amide] are within 1.5-fold of each other in IC50: 5 nM for the first, 6 nM for the second.

First: COCCN(c1ccc(CNC(=O)c2cncc3c2cnn3-c2ccc(F)cc2)cn1)S(C)(=O)=O [1-(4-Fluorophenyl)-1H-pyrazolo[3,4-c]pyridine-4-carboxylic acid {6-[methanesulfonyl-(2-methoxy-ethyl)-amino]-pyridin-3-ylmethyl}-amide]
Second: CC(=O)OCCN(C)S(=O)(=O)c1ccc(CNC(=O)c2cncc3c2cnn3-c2ccc(F)cc2)cc1 [Acetic acid 2-{[4-({[1-(4-fluorophenyl)-1H-pyrazolo[3,4-c]pyridine-4-carbonyl]-amino}-methyl)-benzenesulfonyl]-methyl-amino}-ethyl ester]
The IC50 of the first is 2-fold lower: 1 nM for the first, 2 nM for the second.

Going from `O=C(NCc1cccc(C(F)(F)F)c1)c1c[n+]([O-])cc2c1cnn2-c1ccc(F)cc1` [1-(4-Fluorophenyl)-6-oxy-1H-pyrazolo[3,4-c]pyridine-4-carboxylic acid 3-trifluoromethyl-benzylamide] to `COC(=O)CNS(=O)(=O)c1ccc(CNC(=O)c2cncc3c2cnn3-c2ccc(F)cc2)cc1` [[4-({[1-(4-Fluorophenyl)-1H-pyrazolo[3,4-c]pyridine-4-carbonyl]-amino}-methyl)-benzenesulfonylamino]-acetic acid methyl ester], the IC50 falls from 6 nM to 3 nM (2-fold). The second is the more potent here.

First: CCC[C@H](NC(=O)c1cncc2c1cnn2-c1ccc(F)cc1)c1cncc(S(=O)(=O)CCC(=O)OC)c1 [3-[5-((S)-1-{[1-(4-Fluorophenyl)-1H-pyrazolo[3,4-c]pyridine-4-carbonyl]-amino}-butyl)-pyridine-3-sulfonyl]-propionic acid methyl ester]
Second: CCC[C@H](NC(=O)c1cncc2c1cnn2-c1ccc(F)cc1)c1cncc(S(=O)(=O)CCC(=O)O)c1 [3-[5-((S)-1-{[1-(4-Fluorophenyl)-1H-pyrazolo[3,4-c]pyridine-4-carbonyl]-amino}-butyl)-pyridine-3-sulfonyl]-propionic acid]
The IC50 of the first is 8.5-fold lower: 2 nM for the first, 17 nM for the second. The first is the more potent here.
